Starred links: 1 amine or outer side, 2 acyl side, 3 side chain; linkers in the order of their positions; H or OH if unused. Positions of bridges follow the written chain, without caps; N, C: chain ends. Non-standard residues stand in square brackets, D forms with d. Residues, ends and D or L forms follow the SMILES beside them. TATA = O=C(CC[*:1])N1CN(C(=O)CC[*:2])CN(C(=O)CC[*:3])C1; Dip = N[C@H](C(=O)O)C(c1ccccc1)c1ccccc1; 1Nal = N[C@@H](Cc1cccc2ccccc12)C(=O)O; d1Nal = N[C@H](Cc1cccc2ccccc12)C(=O)O; Hyp = O=C(O)[C@@H]1C[C@@H](O)CN1; hArg = N=C(N)NCCCC[C@H](N)C(=O)O; Cba = N[C@@H](CC1CCC1)C(=O)O; NMeA = CN[C@@H](C)C(=O)O
Target: human EphA2 (Homo sapiens, UniProt P29317)
Test: biochemical
Method: Peptides without a fluorescent tag were tested in competition with a peptide with a fluorescent tag and a known Kd.
Peptides were diluted to an appropriate concentration in assay buffer as described in the direct binding assay with a maximum of 5% DMSO, then serially diluted 1 in 2. […] Measurements were conducted, however the gain was determined prior to the first measurement. Data analysis was in Systat Sigmaplot version 12.0 where the mP values were fit to a user defined cubic equation to generate a Ki value:
“Lig”, “KLig” and “Prot” were all defined values relating to: fluorescent peptide concentration, the Kd of the fluorescent peptide and EphA2 concentration respectively.

Chain of human EphA2 (P29317 24-976): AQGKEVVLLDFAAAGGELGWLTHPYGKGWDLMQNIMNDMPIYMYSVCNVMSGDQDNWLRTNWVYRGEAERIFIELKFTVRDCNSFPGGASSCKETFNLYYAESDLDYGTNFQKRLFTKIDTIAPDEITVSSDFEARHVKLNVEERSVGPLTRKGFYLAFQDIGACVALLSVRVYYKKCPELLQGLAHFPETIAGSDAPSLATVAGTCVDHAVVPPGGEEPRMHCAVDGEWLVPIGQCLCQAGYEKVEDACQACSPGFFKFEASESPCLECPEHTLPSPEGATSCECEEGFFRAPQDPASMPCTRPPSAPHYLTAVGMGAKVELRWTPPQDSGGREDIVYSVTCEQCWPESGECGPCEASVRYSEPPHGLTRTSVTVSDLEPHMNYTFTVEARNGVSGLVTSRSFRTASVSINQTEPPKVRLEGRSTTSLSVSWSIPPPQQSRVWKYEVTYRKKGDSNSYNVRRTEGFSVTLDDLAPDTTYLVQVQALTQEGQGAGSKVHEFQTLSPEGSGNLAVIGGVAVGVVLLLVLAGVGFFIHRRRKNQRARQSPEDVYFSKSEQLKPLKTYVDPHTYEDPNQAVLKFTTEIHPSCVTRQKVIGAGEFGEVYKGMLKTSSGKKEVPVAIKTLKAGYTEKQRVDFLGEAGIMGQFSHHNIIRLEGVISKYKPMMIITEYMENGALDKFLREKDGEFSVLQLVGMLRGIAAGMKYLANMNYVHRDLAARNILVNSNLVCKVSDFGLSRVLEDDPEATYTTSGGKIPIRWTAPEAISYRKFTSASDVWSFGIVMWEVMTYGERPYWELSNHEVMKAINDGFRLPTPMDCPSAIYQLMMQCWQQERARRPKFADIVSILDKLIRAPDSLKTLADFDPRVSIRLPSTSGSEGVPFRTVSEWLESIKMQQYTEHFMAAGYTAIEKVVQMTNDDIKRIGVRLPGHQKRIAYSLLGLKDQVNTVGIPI

Structure (SMILES)	Ki [nM]
CC(C)C[C@@H]1NC(=O)[C@@H]2CSCCC(=O)N3CN(CN(C3)C(=O)CCSC[C@H](NC(=O)[C@H](CC(=O)O)NC(=O)[C@H](CCCCNC(=N)N)NC(=O)[C@H](C)N)C(=O)N3C[C@H](O)C[C@H]3C(=O)N[C@@H](CC(C)C)C(=O)N[C@@H](C(C)C)C(=O)N[C@@H](CC(N)=O)C(=O)N3CCC[C@H]3C(=O)N[C@@H](CC(C)C)C(=O)N2)C(=O)CCSC[C@@H](C(N)=O)NC(=O)[C@H](CCCCNC(=N)N)NC(=O)[C@H](Cc2c[nH]c3ccccc23)NC(=O)[C@@H](CC(=O)O)NC(=O)[C@@H]2CCCN2C(=O)[C@H](CCC(=O)O)NC1=O [BCY12854, A-[HArg]-D-Ci[HyP]LVNPLCiiLEP[dD]W[HArg]Ciii] (H-A[hArg]DC[Hyp]LVNPLCLEP[dD]W[hArg]C-NH2; linker 4-11-18 via TATA; N-terminus and C-terminus assumed)	9.34
CC(C)C[C@@H]1NC(=O)[C@@H]2CSCCC(=O)N3CN(CN(C3)C(=O)CCSC[C@H](NC(=O)[C@H](CC(=O)O)NC(=O)[C@H](CCCCNC(=N)N)NC(=O)[C@H](C)N)C(=O)N3C[C@H](O)C[C@H]3C(=O)N[C@@H](CC(C)C)C(=O)N[C@@H](C(C)C)C(=O)N[C@@H](CC(N)=O)C(=O)N3CCC[C@H]3C(=O)N[C@@H](CC(C)C)C(=O)N2)C(=O)CCSC[C@@H](C(N)=O)NC(=O)[C@H]([C@@H](C)O)NC(=O)[C@H](Cc2c[nH]c3ccccc23)NC(=O)[C@@H](CC(=O)O)NC(=O)[C@@H]2CCCN2C(=O)[C@H](Cc2c[nH]cn2)NC1=O [BCY12855, A-[HArg]-D-Ci[HyP]LVNPLCiiLHP[dD]WTCiii] (H-A[hArg]DC[Hyp]LVNPLCLHP[dD]WTC-NH2; linker 4-11-18 via TATA; N-terminus and C-terminus assumed)	5.55
CC(C)C[C@@H]1NC(=O)[C@@H]2CSCCC(=O)N3CN(CN(C3)C(=O)CCSC[C@H](NC(=O)[C@H](CC(=O)O)NC(=O)[C@H](CCCCNC(=N)N)NC(=O)[C@H](C)N)C(=O)N3C[C@H](O)C[C@H]3C(=O)N[C@@H](CC(C)C)C(=O)N[C@@H](C(C)C)C(=O)N[C@@H](CC(N)=O)C(=O)N3CCC[C@H]3C(=O)N[C@@H](CC(C)C)C(=O)N2)C(=O)CCSC[C@@H](C(=O)N[C@H](C)C(N)=O)NC(=O)[C@H]([C@@H](C)O)NC(=O)[C@H](Cc2c[nH]c3ccccc23)NC(=O)[C@@H](CC(=O)O)NC(=O)[C@@H]2CCCN2C(=O)[C@H](CCC(=O)O)NC1=O [BCY12857, A-[HArg]-D-Ci[HyP]LVNPLCiiLEP[dD]WTCiii[dA]] (H-A[hArg]DC[Hyp]LVNPLCLEP[dD]WTC[dA]-NH2; linker 4-11-18 via TATA; N-terminus and C-terminus assumed)	16
CC(C)C[C@@H]1NC(=O)[C@@H]2CSCCC(=O)N3CN(CN(C3)C(=O)CCSC[C@H](N)C(=O)N3C[C@H](O)C[C@H]3C(=O)N[C@@H](CC(C)C)C(=O)N[C@@H](C(C)C)C(=O)N[C@@H](CC(N)=O)C(=O)N3CCC[C@H]3C(=O)N[C@@H](CC(C)C)C(=O)N2)C(=O)CCSC[C@@H](C(N)=O)NC(=O)[C@H]([C@@H](C)O)NC(=O)[C@H](Cc2c[nH]c3ccccc23)NC(=O)[C@@H](CC(=O)O)NC(=O)[C@@H]2CCCN2C(=O)[C@H](C(c2ccccc2)c2ccccc2)NC1=O [BCY12860, Ci[HyP]LVNPLCiiL[3,3-DPA]P[dD]WTCiii] (H-C[Hyp]LVNPLCL[Dip]P[dD]WTC-NH2; linker 1-8-15 via TATA; N-terminus and C-terminus assumed)	0.66
CC(C)C[C@@H]1NC(=O)[C@@H]2CSCCC(=O)N3CN(CN(C3)C(=O)CCSC[C@H](N)C(=O)N3C[C@H](O)C[C@H]3C(=O)N[C@@H](CC(C)C)C(=O)N[C@@H](C(C)C)C(=O)N[C@@H](CC(N)=O)C(=O)N3CCC[C@H]3C(=O)N[C@@H](CC(C)C)C(=O)N2)C(=O)CCSC[C@@H](C(=O)N[C@H](C)C(N)=O)NC(=O)[C@H]([C@@H](C)O)NC(=O)[C@H](Cc2c[nH]c3ccccc23)NC(=O)[C@@H](CC(=O)O)NC(=O)[C@@H]2CCCN2C(=O)[C@H](CCC(=O)O)NC1=O [BCY12861, Ci[HyP]LVNPLCiiLEP[dD]WTCiii[dA]] (H-C[Hyp]LVNPLCLEP[dD]WTC[dA]-NH2; linker 1-8-15 via TATA; N-terminus and C-terminus assumed)	21.7
CC(C)C[C@@H]1NC(=O)[C@@H]2CSCCC(=O)N3CN(CN(C3)C(=O)CCSC[C@H](NC(=O)[C@H](CC(=O)O)NC(=O)[C@H](CCCCNC(=N)N)NC(=O)[C@H](C)N)C(=O)N3C[C@H](O)C[C@H]3C(=O)N[C@@H](CC3CCC3)C(=O)N[C@@H](C(C)C)C(=O)N[C@@H](CC(N)=O)C(=O)N3CCC[C@H]3C(=O)N[C@@H](CC(C)C)C(=O)N2)C(=O)CCSC[C@@H](C(N)=O)NC(=O)[C@H](CCCCNC(=N)N)NC(=O)[C@H](Cc2c[nH]c3ccccc23)NC(=O)[C@@H](CC(=O)O)NC(=O)[C@@H]2CCCN2C(=O)[C@H](Cc2c[nH]cn2)NC1=O [BCY12862, A-[HArg]-D-Ci[HyP][Cba]VNPLCiiLHP[dD]W[HArg]Ciii] (H-A[hArg]DC[Hyp][Cba]VNPLCLHP[dD]W[hArg]C-NH2; linker 4-11-18 via TATA; N-terminus and C-terminus assumed)	1.22
CC(C)C[C@@H]1NC(=O)[C@@H]2CSCCC(=O)N3CN(CN(C3)C(=O)CCSC[C@H](NC(=O)[C@H](CC(=O)O)NC(=O)[C@H](CCCCNC(=N)N)NC(=O)[C@@H](C)N)C(=O)N3C[C@H](O)C[C@H]3C(=O)N[C@@H](CC3CCC3)C(=O)N[C@@H](C(C)C)C(=O)N[C@@H](CC(N)=O)C(=O)N3CCC[C@H]3C(=O)N[C@@H](CC(C)C)C(=O)N2)C(=O)CCSC[C@@H](C(=O)N[C@H](C)C(N)=O)NC(=O)[C@H]([C@@H](C)O)NC(=O)[C@H](Cc2c[nH]c3ccccc23)NC(=O)[C@@H](CC(=O)O)NC(=O)[C@@H]2CCCN2C(=O)[C@H](CCC(=O)O)NC1=O [BCY12864, [dA]-[HArg]-D-Ci[HyP][Cba]VNPLCiiLEP[dD]WTCiii-[dA]] (H-[dA][hArg]DC[Hyp][Cba]VNPLCLEP[dD]WTC[dA]-NH2; linker 4-11-18 via TATA; N-terminus and C-terminus assumed)	9.29
CC(C)C[C@@H]1NC(=O)[C@@H]2CSCCC(=O)N3CN(CN(C3)C(=O)CCSC[C@H](NC(=O)[C@H](CC(=O)O)NC(=O)[C@H](CCCCNC(=N)N)NC(=O)[C@H](C)N)C(=O)N3C[C@H](O)C[C@H]3C(=O)N[C@@H](CC(C)C)C(=O)N[C@@H](C(C)C)C(=O)N[C@@H](CC(N)=O)C(=O)N3CCC[C@H]3C(=O)N[C@@H](CC(C)C)C(=O)N2)C(=O)CCSC[C@@H](C(N)=O)NC(=O)[C@H](CCCCNC(=N)N)NC(=O)[C@H](Cc2c[nH]c3ccccc23)NC(=O)[C@@H](CC(=O)O)NC(=O)[C@@H]2CCCN2C(=O)[C@H](Cc2cccc3ccccc23)NC1=O [BCY13117, A-[HArg]-D-Ci[HyP]LVNPLCiiL[1Nal]P[dD]W[HArg]Ciii] (H-A[hArg]DC[Hyp]LVNPLCL[1Nal]P[dD]W[hArg]C-NH2; linker 4-11-18 via TATA; N-terminus and C-terminus assumed)	1.12
CC(C)C[C@@H]1NC(=O)[C@@H]2CSCCC(=O)N3CN(CN(C3)C(=O)CCSC[C@H](NC(=O)[C@H](CC(=O)O)NC(=O)[C@H](CCCCNC(=N)N)NC(=O)[C@H](C)N)C(=O)N3C[C@H](O)C[C@H]3C(=O)N[C@@H](CC(C)C)C(=O)N[C@@H](C(C)C)C(=O)N[C@@H](CC(N)=O)C(=O)N3CCC[C@H]3C(=O)N[C@@H](CC(C)C)C(=O)N2)C(=O)CCSC[C@@H](C(N)=O)NC(=O)[C@H]([C@@H](C)O)NC(=O)[C@H](Cc2c[nH]c3ccccc23)NC(=O)[C@@H](Cc2cccc3ccccc23)NC(=O)[C@@H]2CCCN2C(=O)[C@H](CCC(=O)O)NC1=O [BCY13118, A-[HArg]-D-Ci[HyP]LVNPLCiiLEP[d1Nal]WTCiii] (H-A[hArg]DC[Hyp]LVNPLCLEP[d1Nal]WTC-NH2; linker 4-11-18 via TATA; N-terminus and C-terminus assumed)	5.42
CC(C)C[C@@H]1NC(=O)[C@@H]2CSCCC(=O)N3CN(CN(C3)C(=O)CCSC[C@H](N)C(=O)N3C[C@H](O)C[C@H]3C(=O)N[C@@H](CC(C)C)C(=O)N[C@@H](C(C)C)C(=O)N[C@@H](CC(N)=O)C(=O)N3CCC[C@H]3C(=O)N[C@@H](CC(C)C)C(=O)N2)C(=O)CCSC[C@@H](C(N)=O)NC(=O)[C@H]([C@@H](C)O)NC(=O)[C@H](Cc2c[nH]c3ccccc23)NC(=O)[C@@H](CC(=O)O)NC(=O)[C@@H]2CCCN2C(=O)[C@H](Cc2cccc3ccccc23)NC1=O [BCY13119, Ci[HyP]LVNPLCiiL[1Nal]P[dD]WTCiii] (H-C[Hyp]LVNPLCL[1Nal]P[dD]WTC-NH2; linker 1-8-15 via TATA; N-terminus and C-terminus assumed)	2.64
CC(=O)N[C@H]1CSCCC(=O)N2CN3CN(C2)C(=O)CCSC[C@@H](C(=O)N[C@H](CCCCN)C(N)=O)NC(=O)[C@H]([C@@H](C)O)NC(=O)[C@H](Cc2c[nH]c4ccccc24)NC(=O)[C@@H](CC(=O)O)NC(=O)[C@@H]2CCCN2C(=O)[C@H](C(c2ccccc2)c2ccccc2)NC(=O)[C@H](CC(C)C)NC(=O)[C@H](CSCCC3=O)NC(=O)[C@H](CC(C)C)NC(=O)[C@@H]2CCCN2C(=O)[C@H](CC(N)=O)NC(=O)[C@H](C(C)C)NC(=O)[C@H](CC(C)C)NC(=O)[C@@H]2C[C@@H](O)CN2C1=O [BCY13120, Ac-Ci[HyP]LVNPLCiiL[3,3-DPA]P[dD]WTCiii-[dK]] (Ac-C[Hyp]LVNPLCL[Dip]P[dD]WTC[dK]-NH2; linker 1-8-15 via TATA; C-terminus assumed)	0.916
CN[C@@H](C)C(=O)N[C@@H](CCCCNC(=N)N)C(=O)N[C@@H](CC(=O)O)C(=O)N[C@H]1CSCCC(=O)N2CN3CN(C2)C(=O)CCSC[C@H](NC(=O)[C@H](CC(C)C)NC(=O)[C@@H]2CCCN2C(=O)[C@H](CC(N)=O)NC(=O)[C@H](C(C)C)NC(=O)[C@H](CC(C)C)NC(=O)[C@@H]2C[C@@H](O)CN2C1=O)C(=O)N[C@@H](CC(C)C)C(=O)N[C@@H](Cc1c[nH]cn1)C(=O)N1CCC[C@H]1C(=O)N[C@H](CC(=O)O)C(=O)N[C@@H](Cc1c[nH]c2ccccc12)C(=O)N[C@@H](CCCCNC(=N)N)C(=O)N[C@H](C(N)=O)CSCCC3=O [BCY13121, [NMeAla]-[HArg]-D-Ci[HyP]LVNPLCiiLHP[dD]W[HArg]Ciii] (H-[NMeA][hArg]DC[Hyp]LVNPLCLHP[dD]W[hArg]C-NH2; linker 4-11-18 via TATA; N-terminus and C-terminus assumed)	1.49
